Experimental data from US20220395476A1, “DRUG FOR TREATING ARTERY-RELATED DISEASES, AND USE THEREOF” (SHANGHAI INSTITUTE OF MATERIA MEDICA, CHINESE ACADEMY OF …, priority 2019, published 2022).

Tests used:
[1] = test system: aneurysms, intramural hematomas and arterial dissections induced by porcine pancreatic elastase and 1% β-aminopropionitrile in C57BL/6 mice; assay: Aneurysm, intramural hematoma and arterial dissection model induced by porcine pancreatic elastase and 1% β-aminopropionitrile (PPE+BAPN model); type: in vivo, mouse; details: for histological analysis of the vessel wall: Day 15
Protocol: (§1) The mouse was anesthetized by intraperitoneal injection of 1% pentobarbital sodium at the dose of 20 mg/kg. After the mouse entering anesthesia state, the abdominal hair was shaved off with a razor and further thoroughly depilated with depilatory cream. The abdomen was dried and the mouse was fixed on the operating table. Its body temperature was kept with a heating pad under the body. The abdominal skin was wiped with iodine and deiodined with 75% ethanol. An incision of about 1.5 cm was cut in the middle of the abdomen. The organs were carefully pushed away with tweezers. Then the intestine was divided to the left and right sides with gauze wetted with 3% penicillin-streptomycin. The connective tissue and muscle tissue on the surface of the aorta were carefully separated with tweezers to fully expose the abdominal aorta.
(§2) Sterilized absorbent paper (0.3 cm×0.3 cm) was fully infiltrated in porcine pancreatic elastase (PPE), and then applied on the exposed abdominal aorta for 50 minutes. A gauze wetted with normal saline containing 3% penicillin-streptomycin was placed on the abdominal incision to prevent the abdominal water from excessive loss. After 50 minutes, the absorbent paper on the aorta was carefully taken away. And the abdominal cavity was rinsed with normal saline containing 3% penicillin-streptomycin. The peritoneum and skin were sutured with ⅜ suture needle and 5/0 suture line. After suturing, the wound was wiped with iodine and deiodined with 75% ethanol after 1 min. The mouse was placed into a clean feeding cage, fed with 1% β-aminopropionitrile (BAPN) feed and can eat and drink freely. The feed was changed every other day.
(§3) Sample Fixation, Dehydration, Paraffin Embedding and Slicing 100 ml of formaldehyde, 4 g of sodium dihydrogen phosphate and 6.5 g of disodium hydrogen phosphate were dissolved in 900 ml of distilled water to prepare a polyoxymethylene fixed solution with a volume ratio of 10%. The aortic tissue was fixed in polyoxymethylene fixation solution for 72 hours, then washed with tap water for 4-6 hrs and placed in the dehydrator. The program was set for automatic dehydration, with 75% ethanol for 1.5 hours, 95% ethanol for 1.5 hours, 100% ethanol for 1.5 hours, dimethylbenzene for 1.5 hours and paraffin for 1.5 hours, successively. The paraffin embedding machine was opened 2 hours in advance to melt paraffin, and the temperature was controlled at 60° C. After the paraffin was melted, the dehydrated aortic tissue was embedded in paraffin. It was poured into the embedding box, and the paraffin soaked tissue block was placed into the embedding frame using heated tweezers and gently moved to the cold table. The paraffin block was taken off for slicing after the paraffin was solidified. Before slicing, the paraffin block was put into refrigerator for pre-cooling. After cooling, the paraffin block was cut into continuous 5 μM-thick paraffin sections using the slicer. The sections were unfolded on warm water at 38° C. in a slide spreader, fished with slides coated with APES, and dried naturally for subsequent histopathological staining.
The tissue was fixed, embedded and cut into 4 μM paraffin sections. The paraffin sections were firstly baked (65° C., 60 minutes), and then dewaxed to aqueous phase (dimethylbenzene for 15 minutes→absolute ethanol for 5 minutes→95% ethanol for 5 minutes→75% ethanol for 5 minutes→running water for 1 minute); stained with hematoxylin for 15 minutes and then rinsed with running water for 4 minutes; differentiated with 1% ethanol hydrochloride for 5 seconds (the differentiation time was adjusted according to the preparation time of differentiation solution) and rinsed with running water for 5 minutes; then stained with eosin for 1 minute and placed in water for 1 minute; dehydrated and then permeated with dimethylbenzene (75% ethanol for 5 minutes→95% ethanol for 5 minutes→absolute ethanol for 5 minutes→dimethylbenzene for 15 minutes) and sealed with neutral gum.

[2] = test system: aneurysm induced by porcine pancreatic elastase in C57BL/6 mice; assay: Aneurysm model induced by porcine pancreatic elastase (PPE model); type: in vivo, mouse; details: for diameter of aneurysms: 20 mg/kg intraperitoneal injection from Day 5 for 10 days
Protocol: as §1
as §2, with “The” for “And the”, “cage” for “cage, fed with 1% β-aminopropionitrile (BAPN) feed”, “freely.” for “freely. The feed was changed every other day.”
as §3
The tissue was fixed, embedded and cut into 4 μM paraffin sections. […]

[3] = 100 mg/kg intraperitoneal injection from Day 5 for 10 days
[4] = 100 mg/kg intraperitoneal injection from Day 5 for 10 days, evaluated Day 15
[5] = evaluated Day 15, vs model control
[6] = 100 mg/kg intragastric administration from Day 5 for 10 days, evaluated Day 15
[7] = 50 mg/kg orally via gavage from Day 5 for 10 days, evaluated Day 15

COc1cc(/C=C/C(=O)O)ccc1O [Ferulic acid]
histological analysis of the vessel wall [1, 3]: protected the integrity of vessel structure, inhibited the degradation of elastic layer, inhibited the occurrence of intramural hematoma | diameter / expansion of aneurysm (maximum blood vessel diameter of arteriopathy site) [1, 4]: significantly reduced the expansion of aneurysm in mouse (P<0.001) | occurrence of intramural hematoma and arterial dissection [1, 4]: significantly reduced the occurrence of intramural hematoma and arterial dissection, and the arterial rupture in mouse | diameter of aneurysms [2, 5]: significantly reduce the diameter of aneurysms in mouse (P<0.001)

C=CCc1ccc(O)c(OC)c1 [Eugenol]
diameter of infrarenal aneurysm [1, 6]: significantly reduced the diameter of infrarenal aneurysm in mouse (P<0.001) | occurrence of infrarenal artery intramural hematoma and arterial dissection [1, 6]: reducing the occurrence of infrarenal artery intramural hematoma and arterial dissection in mouse | diameter / expansion of aneurysm (maximum blood vessel diameter of arteriopathy site) [1, 4]: significantly reduced the diameter of infrarenal aneurysm in mouse (P<0.01) | occurrence of intramural hematoma and arterial dissection [1, 4]: reducing the occurrence of infrarenal artery intramural hematoma and arterial dissection and the arterial rupture in mouse

COc1cc2ccc(=O)oc2cc1O [Scopoletin]
diameter of infrarenal aneurysm [1, 6]: significantly reduced the diameter of infrarenal aneurysm in mouse

Cc1ccc(C(C)C)cc1O [Carvacrol]
histological analysis of the vessel wall [1, 3]: reduced the thickness of vessel wall and protected the integrity of vessel structure | diameter / expansion of aneurysm (maximum blood vessel diameter of arteriopathy site) [1, 4]: significantly reduced the diameter of infrarenal aneurysm in mouse (P<0.001) | occurrence of intramural hematoma and arterial dissection [1, 4]: reduced the occurrence of infrarenal aneurysm, intramural hematoma and arterial dissection in mouse

O=C(/C=C/c1ccc(O)c(O)c1)OCCc1ccccc1 [Phenethyl caffeate]
histological analysis of the vessel wall [1, 3]: reduced the thickness of vessel wall and protected the integrity of vessel structure | diameter / expansion of aneurysm (maximum blood vessel diameter of arteriopathy site) [1, 4]: significantly reduced the diameter of artery expansion in mouse (P<0.01) | occurrence of intramural hematoma and arterial dissection [1, 4]: significantly reduced the occurrence of intramural hematoma and arterial dissection, and the arterial rupture in mouse | diameter of infrarenal aneurysms ([2]; 100 mg/kg orally via gavage from Day 5 for 10 days, evaluated Day 15, vs model control): significantly reduced the diameter of infrarenal aneurysms in mouse (P<0.001)

COc1ccc(C(C)=O)c(O)c1 [Paeonol]
histological analysis of the vessel wall [1, 3]: reduced the thickness of vessel wall and protected the integrity of vessel structure | diameter / expansion of aneurysm (maximum blood vessel diameter of arteriopathy site) [1, 4]: significantly reduced the diameter of infrarenal aneurysm in mouse (P<0.001) | occurrence of intramural hematoma and arterial dissection [1, 4]: reduced the occurrence of infrarenal artery intramural hematoma and arterial dissection in mouse

O=C(O)/C=C/c1ccc(O)c(O)c1 [Caffeic acid]
diameter of aneurysms [2, 5]: significantly reduced the diameter and expansion of aneurysm in mouse (P<0.01)

Aspirin eugenol ester
histological analysis of the vessel wall [1, 3]: reduced the thickness of vessel wall and protected the integrity of vessel structure | occurrence of intramural hematoma and arterial dissection [1, 4]: significantly reduced the occurrence of infrarenal artery intramural hematoma and arterial dissection in mouse (P<0.001)

O=C(O)/C=C/c1ccc(O)cc1 [p-Coumaric acid]
diameter of infrarenal aneurysm [1, 6]: significantly reduced the diameter of infrarenal aneurysm in mouse

O=c1ccc2ccccc2o1 [Coumarin]
diameter of infrarenal aneurysm [1, 6]: significantly reduced the diameter of infrarenal aneurysm in mouse

COC(=O)[C@@H](Cc1ccc(O)c(O)c1)OC(=O)/C=C/c1ccc(O)c(O)c1 [Methyl rosmarinate]
histological analysis of the vessel wall [1, 3]: reduced the thickness of vessel wall and protected the integrity of vessel structure | occurrence of intramural hematoma and arterial dissection [1, 4]: significantly reduced the occurrence of infrarenal aneurism, intramural hematoma and arterial dissection in mouse

O=C(O)[C@H](O)Cc1ccc(O)c(O)c1 [Danshensu]
diameter of aneurysms [2, 5]: significantly reduced the diameter and expansion of aneurysm (P<0.01)

COc1cc(/C=C/C(=O)O)ccc1O [Piperazine ferulate, reference compound]
histological analysis of the vessel wall ([1]; 50 mg/kg orally via gavage from Day 5 for 10 days): reduced the thickness of vessel wall and protected the integrity of vessel structure | expansion of arteries (maximum blood vessel diameter) [1, 7]: significantly reduced the expansion of arteries in mouse (P<0.001) | occurrence of aneurysm, intramural hematoma and arterial dissection [1, 7]: significantly reduced the occurrence of aneurysm, intramural hematoma and arterial dissection

CC(C)(C)C(=O)Oc1ccc(S(=O)(=O)Nc2ccccc2C(=O)NCC(=O)[O-])cc1.[Na+] [Sivelestat sodium, reference compound]
PPE + BAPN (protective effect) ([1]; aneurysm model induced by porcine pancreatic elastase and 1% β-aminopropionitrile, mouse): ineffective | PPE (protective effect) ([2]; aneurysm model induced by porcine pancreatic elastase, mouse): ineffective
